Ends that are not written are not given here.
What was measured:
[1] = test system: Sheep red blood cells (RBCs); experiment: Hemolysis; format: cell-based; details: ovine RBCs, 1 hour at 37 C, up to 15μM peptide, absorbance 415 nm, normalised to Triton X-100; average of three replicates
Protocol: Hemolysis on Sheep red blood cells (RBCs) was used to quantify the destabilization of membranes by leakage of hemoglobin. Sheep blood was obtained through Hemostat Laboratories and stored at 2 – 8 C. A 7 mL aliquot of whole sheep blood was mixed with 7 mL of sterile PBS at pH 7.4. The solution was sedimented via centrifugation for 7 minutes at 2500 rpm. Supernatant was removed and the pellet was resuspended to the original volume of 14 mL. This was repeated three times and the final pellet was resuspended to 14 with PBS. Next, 90 μl of the cell suspension was pipetted into all wells of a conical bottom 96-well plate. […] The absorbance of the plate was taken at 415 nm using a Spectramax M5 multimode plate reader. By using the absorbance of each well compared to the wells without additive and those with Triton-X 100 a percentage of hemolysis was calculated. […]
Hemolytic activity of venom peptides and, more broadly AMPS in general, has often been a first approximation toward assessing potential for further development. […] The peptides we co-incubated with freshly isolated ovine red blood cells and peptide-induced hemolysis was determined by comparing hemoglobin leakage from treated cells to that of untreated cells as well as cells treated with the detergent Triton X-100 as a positive control.

[2] = Acrylamide quenching of Trp fluorescence in absence and presence of lipid vesicles; format: physicochemical; details: 2 μM peptide in PBS pH 7.0, λex 295 nm, λem 340, average of three replicates ± SD; for Acrylamide quenching Ksv, PCPG: 3:1 DOPC:DOPG vesicles; for Acrylamide quenching Ksv, PCPG / Acrylamide quenching Ksv, PEPG / Acrylamide quenching Ksv, PC / Acrylamide quenching Ksv, PC/Chol: 250 μM lipid; for Acrylamide quenching Ksv, PEPG: 3:1 POPE:DOPG vesicles; for Acrylamide quenching Ksv, PC: DOPC vesicles; for Acrylamide quenching Ksv, PC/Chol: DOPC:Cholesterol vesicles; for Acrylamide quenching Ksv, PBS: no lipid vesicles
Protocol: To form small unilamellar vesicles (SUVs) sonication or ethanol dilution methods were implemented ([Caputo & London, 2019]). In all cases, lipid vesicle preparation was the same. Depending on the lipid composition, appropriate volumes of lipids in chloroform were mixed in a glass tube and then allowed to dry under N2 gas for 15 minutes. The lipid films were then placed in a vacuum desiccator and allowed to dry further under a vacuum for 1 hour. For vesicles formed through ethanol dilution methods, 10 μL of pure ethanol was added to the film, and then vortex until the dissipation of the film. While continuing to vortex, the appropriate amount of PBS was added. For vesicles formed using the method of sonication, PBS was added directly to the tube while being vortexed to create multilamellar vesicles (MLVs). The MLV suspension was covered with parafilm and then placed in a high-powered bath sonicator (Avanti Lipids) and subjected to sonication for 20 minutes to create SUVs.
Acrylamide quenching was monitored by titration of samples with 10 μL aliquots of 4M acrylamide titrated into peptide samples prepared as described above. These samples contained either or [0.25] mM total lipid. After each addition of acrylamide, Trp fluorescence intensity was measured using λex = 295 nm and λem = 340. Corrections to the emission intensity were made for background subtraction, dilutions, and inner filter effects in the excitation path as described previously. The same method to calculate Ksv was used as above.
In order to gain more insight into the bilayer interactions, fluorescence quenching approaches were utilized. The peptides were exposed to the aqueous quencher acrylamide in solution or when bound to vesicles. […] Thus, peptide Trp exposure to the aqueous milieu can be gauged by the extent of quenching by acrylamide. Stern-Volmer quenching plots were created to analyze the data and Ksv (slopes of a linear fit to the data) are shown in Figure 4 and Table 2. […] In the case of L1L and L1I, there was a significant reduction in quenching between the solution (free) state of the peptide and when bound to anionic vesicles, but a much smaller reduction if any when interacting with zwitterionic vesicles. This is consistent with a more deeply buried Trp in anionic bilayers.

[3] = test system: E. coli D31 inner membrane; experiment: E. coli inner membrane permeabilization (ONPG / β-galactosidase); format: cell-based, Escherichia coli; details: E. coli D31, ONPG hydrolysis, absorbance 420 nm, up to 90 minutes; average of three replicates
Protocol: A single colony of E.coli D31 was inoculated into LB broth and placed in a shaking incubator and set to 225 rpm at 37 C for ~ 18 hours. A 1:250 dilution was made using the overnight culture into fresh LB broth. To induce the expression the expression of β-galactosidase, a final concentration of 100mM of IPTG was introduced. This dilution plus the IPTG was placed back into the shaking incubator for about 2 hours until an OD600 of 0.2-0.4 was achieved.
A 96 well plate was prepared with the following solutions in order: 10 μL of each peptide variant 2-fold serially diluted down the plate with the exception of the final row (used as a negative control 10 μL of 0.01% acetic acid), 56 μL Z-buffer (60mM Na2HPO4, 40mM NaH2PO4, 10mM KCl, 1mM MgSO4, 50mM β-mercaptoethanol pH 7), 19 μL of the E. coli culture, and 15 μL of 4 mg/ml ONPG that was prepared in Z-buffer added immediately before the assay began. Absorbance measurements wer taken at 420 nm every 5 minutes for a total run time of 90 minutes. […]
As the mechanism of action of the L1 venom peptide is likely a membrane disruptive mechanism, the effect of the hydrophobic substitutions on membrane permeabilization was investigated using E.coli and ovine red blood cells (RBCs). […] Similarly, the permeabilization of the E. coli inner membrane was assessed using a cytoplasmic enzyme, β-galactosidase, and a chromogenic substrate, ONPG. […]

Row | Sequence | Hemolysis [1] | Acrylamide quenching Ksv, PCPG [2] | Acrylamide quenching Ksv, PEPG [2] | Acrylamide quenching Ksv, PC [2] | Acrylamide quenching Ksv, PC/Chol [2] | Acrylamide quenching Ksv, PBS [2] | Inner membrane permeabilization [3]
1 | LLKELWTKMKGAGKALLGKLKGLL [L1L] | do not cross the threshold for inducing hemolytic activity | 3.51 ± 0.17 M⁻¹ | 2.22 ± 4.04 M⁻¹ | 4.08 ± 2.10 M⁻¹ | 8.92 ± 0.94 M⁻¹ | 4.26 ± 0.97 M⁻¹ | exhibited any inner membrane permeabilizing activity
2 | FFKEFWTKMKGAGKAFFGKFKGFF [L1F] | do not cross the threshold for inducing hemolytic activity | 2.06 ± 0.97 M⁻¹ | 1.80 ± 0.77 M⁻¹ | 1.57 ± 3.49 M⁻¹ | 1.63 ± 0.20 M⁻¹ | 4.18 ± 4.79 M⁻¹ | exhibited any inner membrane permeabilizing activity

From PMC9114170, “Investigation of the Role of Hydrophobic Amino Acids on the Structure-Activity Relationship in the Antimicrobial Venom Peptide Ponericin L1” (The Journal of membrane biology, 2021)
